From patent US11130752B2, “Aminopyrimidine compound” (Cardurion Pharmaceuticals, LLC, priority 2018, dated 2021) come the findings set out here.

Data set [1] relates to phospholamban (Thr17, PLN) phosphorylation, cardiac CaMKII. Description: In vivo cardiac CaMKII inhibition (oral administration), P-PLN Western blot. The note with it: male CD (SD) IGS rat left ventricle, 30 mg/kg p.o., 4 hr after administration, in comparison with vehicle-treated group, read-out: Reduction rate of P-PLN. The method, then: Evaluation of In Vivo Cardiac CaMKII Inhibition (Oral Administration)
To evaluate potency of test compounds to inhibit cardiac CaMKII kinase in vivo, phosphorylation levels of CaMKII-specific sites of phospholamban (Thr17, PLN) were measured in the heart of rats administered orally with test compounds.
Test compounds were suspended in 0.5% [w/v]methylcellulose/water solution and administered (30 mg/kg) to male CD (SD) IGS rat (6-8 weeks old, n=4) by the p.o. route (5 mL/kg). At 4 hours after the administration, rats were sacrificed and the hearts were harvested. After washing the isolated hearts with ice-cold saline, connective tissues were removed on ice, and the isolated left ventricle were frozen into liquid nitrogen gas and stored at −80° C.
(§1) The left ventricle samples were homogenized in RIPA-buffer containing phosphatase inhibitors and protease inhibitors. Samples were analyzed by Western blotting using anti-P-PLN (Thr17, Santa Cruz Biotechnology, sc-17024-R) antibody. The band intensities were quantified using an imaging system and were normalized relative to the vehicle-treated group.

The test system is the same in data set [2]. Description: In vivo cardiac CaMKII inhibition (intravenous administration), P-PLN Western blot. As to conditions: male CD (SD) IGS rat left ventricle, 1 mg/kg bolus i.v., 0.25 hr after administration, in comparison with vehicle-treated group. As to the method:
Evaluation of In Vivo Cardiac CaMKII Inhibition (Intravenous Administration)
To evaluate potency of test compounds to inhibit cardiac CaMKII kinase in vivo, phosphorylation levels of CaMKII-specific sites of phospholamban (Thr17, PLN) were measured in the heart of rats administered intravenously with test compounds.
Test compounds were dissolved in N,N-dimethylacetamide and 1,3-butanediol (1:1) solution and were injected (1 mg/kg) to male CD (SD) IGS rats (8 weeks old, n=4) by bolus intravenous injection via the lateral tail vein or the femoral vein (0.5-1 mL/kg). At 0.25 hours after the injection, rats were sacrificed and the hearts were harvested. After washing the isolated hearts with ice-cold saline, connective tissues were removed on ice, and the isolated left ventricle were frozen into liquid nitrogen gas and stored at −80° C.
as §1

The target of another data set is T1, human CaMKIIδ (Homo sapiens, UniProt Q13557).
T1 construct: Full-length, glutathione-S-transferase(GST)-tagged, human CaMKIIδ was purchased from Carna Biosciences; purchased Carna Biosciences (CaMKIIδ); Wako Pure Chemical Industries (calmodulin) 02-111
Description: In vitro CaMKII inhibitory activity (binding assay, TR-FRET). As to conditions: activity ranks. Summed up:
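TR-FRET displacement of a BODIPY probe (300 nM) from 0.5 nM full-length GST-tagged human CaMKIIδ, with Tb-anti-GST, calmodulin and 1 mM CaCl2 in pH 7.6 HEPES/MgCl2 buffer. Read after 1 hr at room temperature over an eight-point 4-fold series. IC50 by logistic fit, with 3 μM parent compound as the 100% control.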

For another data set, the system named is HepG2 cells. Description: In vitro cytotoxicity (cellular ATP content, CellTiter-Glo). The data set is classed as cell-based. As to conditions: 33 μM, 72 hr incubation. As to the method: Evaluation of In Vitro Cytotoxicity
To evaluate in vitro cytotoxicity of test compounds, % ATP reduction was determined in the presence of 33 μM of each test compound after 72 hr incubation.
HepG2 cells were seeded in DMEM (Invitrogen) containing 10% FBS (Corning)+glucose (4.5 g/L) for 24 hr to allow cell adhesion. For compound treatments, compounds were diluted in DMSO and the media, followed by added to the wells (24 hr after the cell seeding) to obtain the desired final concentration (33 μM, n=2). The final DMSO concentration was 1%. After 72 hr, cellular ATP contents were measured using CellTiter-Glo Luminescent Cell Viability Assay (Promega). The % ATP reduction was determined by comparing the ATP contents in the absence and the presence of test compounds.

For the compound `COCCCOc1nn([C@H]2CC[C@H](N3C[C@@H](C)O[C@@H](C)C3)CC2)cc1Nc1ncc(-c2ccc(C#N)c(O[C@@H](C)Cn3cnnn3)c2)cn1` [Example 143, 2-(((S)-1-(1H-tetrazol-1-yl)propan-2-yl)oxy)-4-(2-((1-((1r,4r)-4-((2S,6R)-2,6-dimethylmorpholino)cyclohexyl)-3-(3-methoxypropoxy)-1H-pyrazol-4-yl)amino)pyrimidin-5-yl)benzonitrile], the melting point amounted to 113 °C. In addition, in data set [1], the inhibition in vivo at 30 mg/kg was more than 30%. Besides, the “Reduction rate of P-PLN” value in data set [2] is recorded as more than 30%. The same compound yielded an IC50 at human CaMKIIδ (Table 1, GST-tagged human CaMKIIδ) of less than 0.01 µM. Besides, in the data set with HepG2 cells, the “% ATP reduction” value turned out to be 12%.
On to `C[C@@H]1CN([C@H]2CC[C@H](n3cc(Nc4ncc(-c5ccc(C#N)c(O[C@@H](C)Cn6cnnn6)c5)cn4)c(OCCC(C)(C)O)n3)CC2)C[C@H](C)O1` [Example 485, 2-(((S)-1-(1H-tetrazol-1-yl)propan-2-yl)oxy)-4-(2-((1-((1r,4r)-4-((2S,6R)-2,6-dimethylmorpholino)cyclohexyl)-3-(3-hydroxy-3-methylbutoxy)-1H-pyrazol-4-yl)amino)pyrimidin-5-yl)benzonitrile], for which, in data set [2], the “Reduction rate of P-PLN” value is more than 30%. At human CaMKIIδ (Table 4, GST-tagged human CaMKIIδ), the IC50 was less than 0.01 µM. Moreover, in the data set on HepG2 cells, the “% ATP reduction” value is 7%.
